Active and inactive are the calls of the source. The calls are words filed in the database; no cut-off is given here.
Tests used:
[1] = target: T1, Interleukin-1 receptor-associated kinase 1 (Homo sapiens, UniProt P51617); test: Inhibition of truncated human N-terminal GST-fusion tagged IRAK1 (194 to 712 residues) expressed in baculovirus expression system using FAM-labelled peptide as substrate preincubated for 10 mins followed by substrate addition and further incubated for 1 hr in presence of ATP at Km concentration by caliper mobility shift assay
Target sequence in this assay (P51617 whole entry, the tested form may be a part): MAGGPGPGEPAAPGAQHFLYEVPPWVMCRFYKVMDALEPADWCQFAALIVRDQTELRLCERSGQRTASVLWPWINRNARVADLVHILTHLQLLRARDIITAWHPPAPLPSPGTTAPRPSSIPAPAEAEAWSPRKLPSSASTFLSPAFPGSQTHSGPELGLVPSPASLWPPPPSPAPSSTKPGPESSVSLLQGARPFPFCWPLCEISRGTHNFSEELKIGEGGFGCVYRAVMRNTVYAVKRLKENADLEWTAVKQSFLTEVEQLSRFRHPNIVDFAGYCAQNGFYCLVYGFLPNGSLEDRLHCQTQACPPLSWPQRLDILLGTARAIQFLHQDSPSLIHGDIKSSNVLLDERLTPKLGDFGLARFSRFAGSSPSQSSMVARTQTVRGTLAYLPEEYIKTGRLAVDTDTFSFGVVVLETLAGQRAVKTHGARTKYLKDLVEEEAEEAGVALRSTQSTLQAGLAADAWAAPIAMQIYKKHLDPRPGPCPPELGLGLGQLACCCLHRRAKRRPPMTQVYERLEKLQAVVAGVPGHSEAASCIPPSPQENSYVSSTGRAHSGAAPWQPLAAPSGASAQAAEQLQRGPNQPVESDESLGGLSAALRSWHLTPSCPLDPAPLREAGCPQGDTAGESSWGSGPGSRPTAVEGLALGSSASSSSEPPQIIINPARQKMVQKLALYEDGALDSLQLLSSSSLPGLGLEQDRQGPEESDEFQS

[2] = target: von Hippel-Lindau disease tumor suppressor (Homo sapiens, UniProt P40337); test: Displacement of 5-FAM-labelled DEALA-HypYIPMDDDFQLRSF peptide from VHL (unknown origin) by fluorescence polarization assay
[3] = target: T2, von Hippel-Lindau disease tumor suppressor/Interleukin-1 receptor-associated kinase 1 (Homo sapiens, UniProt P51617+P40337); test: Protac activity at IRAK1/VHL E3 ligase in HEK293T cells assessed as induction of IRAK1 degradation at 1 uM measured after 24 hrsin presence of VH298 by Western blot analysis; type: cell-based; settings: time 24.0 hrs
Target sequence in this assay (P40337 whole entry, looked up): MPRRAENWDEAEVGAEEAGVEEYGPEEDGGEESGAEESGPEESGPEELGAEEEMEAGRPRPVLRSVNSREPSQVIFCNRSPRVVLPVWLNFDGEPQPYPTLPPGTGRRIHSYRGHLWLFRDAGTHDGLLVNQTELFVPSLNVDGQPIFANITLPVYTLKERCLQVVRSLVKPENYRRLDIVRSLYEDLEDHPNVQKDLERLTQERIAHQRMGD
Target sequence in this assay (P51617 whole entry, looked up): as the sequence (P51617 whole entry, the tested form may be a part) above

[4] = target: T2, von Hippel-Lindau disease tumor suppressor/Interleukin-1 receptor-associated kinase 1; test: Protac activity at IRAK1/VHL E3 ligase in human OCILY10 assessed as induction of IRAK1 degradation measured after 24 hrs by Western blot analysis
Target sequence in this assay (P51617 whole entry): as the sequence (P51617 whole entry, the tested form may be a part) above
Target sequence in this assay (P40337 whole entry): as the sequence (P40337 whole entry, looked up) above

[5] = target: T1, Interleukin-1 receptor-associated kinase 1; test: Inhibition of IRAK1 in human HBL1 cells assessed as reduction in total STAT3 level at up to 1 uM measured after 24 hrs by Western blot analysis; type: cell-based; settings: dose microM <=1, time 24.0 hrs
Target sequence in this assay (P51617 whole entry, looked up, the tested form may be a part): as the sequence (P51617 whole entry, the tested form may be a part) above

von Hippel-Lindau disease tumor suppressor, sequence (P40337 whole entry): as the sequence (P40337 whole entry, looked up) above

Question: For `COc1cc(N2CCC(OCC(=O)N[C@H](C(=O)N3C[C@H](O)C[C@H]3C(=O)N[C@@H](C)c3ccc(-c4scnc4C)cc3)C(C)(C)C)CC2)ccc1NC(=O)c1cccc(-c2ccn[nH]2)n1`, which IC50 [1] is on record?
Answer: 0.072 µM

Question: What about the IC50 [2] of the same molecule?
Answer: 1.07 µM

Question: What about the Activity [3] of the same molecule?
Answer: inactive

Question: What about the DC50 [4] of the same molecule?
Answer: 0.02 µM

Question: What about the inhibition [5] of the same molecule?
Answer: inactive

From ChEMBL document CHEMBL5029152, “Discovery of Highly Potent and Selective IRAK1 Degraders to Probe Scaffolding Functions of IRAK1 in ABC DLBCL” (J Med Chem, 2021)
